Assays:
[1] = target: Enteropeptidase (Homo sapiens) (UniProt P98073); experiment: Inhibition of full length recombinant human EP expressed in CHO cells assessed as protease activity using […] as substrate at 0.1 uM by fluorescence assay relative to control; design: scale not given: the % may be the effect or the level left
[2] = target: Enteropeptidase (Homo sapiens) (UniProt P98073); experiment: Inhibition of full length recombinant human EP expressed in CHO cells assessed as protease activity using […] as substrate at 1 uM by fluorescence assay relative to control; design: scale not given: the % may be the effect or the level left
[3] = target: Enteropeptidase (Homo sapiens) (UniProt P98073); experiment: Inhibition of full length recombinant human EP expressed in CHO cells assessed as protease activity using […] as substrate at 10 uM by fluorescence assay relative to control; design: scale not given: the % may be the effect or the level left
Bos taurus [4] = species on record: Bos taurus; experiment: Inhibition of bovine trypsin assessed as protease activity using D-CHA-AR-AMC as substrate at 0.1 uM by fluorescence assay relative to control; design: scale not given: the % may be the effect or the level left
Bos taurus [5] = species on record: Bos taurus; experiment: Inhibition of bovine trypsin assessed as protease activity using D-CHA-AR-AMC as substrate at 1 uM by fluorescence assay relative to control; design: scale not given: the % may be the effect or the level left
Bos taurus [6] = species on record: Bos taurus; experiment: Inhibition of bovine trypsin assessed as protease activity using D-CHA-AR-AMC as substrate at 10 uM by fluorescence assay relative to control; design: scale not given: the % may be the effect or the level left
[7] = Apparent permeability from apical to basolateral side in dog MDCK cells; type: ADME, cell-based, Canis lupus familiaris
[8] = target: Enteropeptidase (Homo sapiens) (UniProt P98073); experiment: Inhibition of full length recombinant human EP expressed in CHO cells assessed as ratio of Kinact/Kiapp; type: cell-based
Bos taurus [9] = species on record: Bos taurus; experiment: Inhibition of bovine trypsin assessed as ratio of Kinact/Kiapp

Sequence of Enteropeptidase (Homo sapiens) (P98073 2-784 limits assumed): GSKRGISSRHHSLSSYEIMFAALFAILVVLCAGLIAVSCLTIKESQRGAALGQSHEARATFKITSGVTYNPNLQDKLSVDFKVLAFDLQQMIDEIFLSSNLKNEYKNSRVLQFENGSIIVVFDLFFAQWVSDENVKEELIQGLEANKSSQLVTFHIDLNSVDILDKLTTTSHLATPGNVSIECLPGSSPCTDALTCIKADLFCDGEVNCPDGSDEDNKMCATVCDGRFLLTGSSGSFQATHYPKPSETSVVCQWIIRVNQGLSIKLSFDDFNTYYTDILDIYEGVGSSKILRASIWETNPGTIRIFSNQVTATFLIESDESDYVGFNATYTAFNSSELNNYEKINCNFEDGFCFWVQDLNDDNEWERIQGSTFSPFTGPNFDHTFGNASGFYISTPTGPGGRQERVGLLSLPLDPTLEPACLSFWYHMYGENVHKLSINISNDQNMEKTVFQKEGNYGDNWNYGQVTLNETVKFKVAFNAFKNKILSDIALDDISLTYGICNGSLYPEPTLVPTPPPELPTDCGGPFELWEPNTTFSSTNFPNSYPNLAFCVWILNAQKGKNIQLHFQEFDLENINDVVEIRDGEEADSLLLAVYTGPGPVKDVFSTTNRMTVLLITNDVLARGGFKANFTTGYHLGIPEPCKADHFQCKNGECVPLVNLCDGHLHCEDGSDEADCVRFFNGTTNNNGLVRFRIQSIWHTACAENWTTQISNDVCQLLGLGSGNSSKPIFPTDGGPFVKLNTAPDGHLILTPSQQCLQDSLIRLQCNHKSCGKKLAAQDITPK
Sequence of Enteropeptidase (Homo sapiens) (P98073 785-1019 limits assumed): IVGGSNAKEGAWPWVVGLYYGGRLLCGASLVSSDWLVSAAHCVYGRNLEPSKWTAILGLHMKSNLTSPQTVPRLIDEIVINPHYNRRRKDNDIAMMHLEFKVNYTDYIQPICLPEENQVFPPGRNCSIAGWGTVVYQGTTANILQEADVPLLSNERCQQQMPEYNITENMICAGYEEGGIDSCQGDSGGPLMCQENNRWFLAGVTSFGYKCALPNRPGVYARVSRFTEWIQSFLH

Row | Structure (SMILES) | Activity [1] | Activity [2] | Activity [3] | Activity (Bos taurus [4]) | Activity (Bos taurus [5]) | Activity (Bos taurus [6]) | Papp A→B [7] | Ratio [8] | Ratio (Bos taurus [9])
1 | CN(C(=N)N)c1ccc(C(=O)Oc2ccc(CC(=O)O)n3ncnc23)cc1 | 40.5% | 93.8% | 99.3% | 31.4% | 89.2% | 98.9% |  |  | 
2 | N=C(N)NCc1ccc(C(=O)Oc2ccc(CC(=O)O)n3ncnc23)cc1 | 10.9% | 43.7% | 83.6% | 3.87% | 19.9% | 72.5% |  |  | 
3 | N#Cc1cc(C(=O)Oc2ccc(CC(=O)O)n3ncnc23)ccc1NC(=N)N | -3.01% | -6.26% | 32.1% | 0.95% | 12.3% | 29.9% |  |  | 
4 | N=C1NCCN1c1ccc(C(=O)Oc2ccc(CC(=O)O)n3ncnc23)cc1 | 10.5% | 57.9% | 93.2% | 10.9% | 58.3% | 93% |  |  | 
5 | N=C(N)Nc1ccc(C(=O)Oc2ccc(CCC(=O)O)n3ncnc23)cc1 | 35% | 101% | 100% | 99.8% | 100% | 100% |  |  | 
6 | CONC(=N)c1ccc(C(=O)Oc2ccc(CC(=O)O)n3ncnc23)cc1 | 2.43% | 9.05% | 34% | -3.11% | -3.33% | 18.2% |  |  | 
7 | N=C(N)Nc1ccc(C(=O)Oc2cc(CCC(=O)O)cn3ncnc23)cc1 | 45.2% | 103% | 101% | 99.2% | 100% | 100% | 1.12 ×10⁻⁶ cm/s |  | 
8 | O=C(O)Cc1ccc(OC(=O)c2ccc(NC3=NCCCN3)cc2)c2ncnn12 | 1.03% | -2% | -10.4% | 2.91% | -3.49% | -7.38% |  |  | 
9 | N=C(N)Nc1ncc(C(=O)Oc2ccc(CC(=O)O)n3ncnc23)cn1 | 92.1% | 99.5% | 100% | 96.5% | 100% | 100% |  |  | 
10 | N=C(N)Nc1ccc(C(=O)Oc2ccc(CC(=O)O)n3ncnc23)cc1F | 96.8% | 100% | 100% | 87.6% | 100% | 100% |  | 72800 M⁻¹ s⁻¹ | 69700 M⁻¹ s⁻¹
11 | N=C(N)Nc1ccc(C(=O)Oc2cc(CC(=O)O)cn3ncnc23)cc1 | 13.1% | 58.8% | 101% | 81.7% | 100% | 100% |  |  | 
12 | N=C(N)Nc1ccc(C(=O)Oc2ccc(CC(=O)O)n3ccnc23)cc1 | 101% | 100% | 100% | 96.3% | 101% | 101% | 1.48 ×10⁻⁶ cm/s | 210000 M⁻¹ s⁻¹ | 111000 M⁻¹ s⁻¹
13 | Cc1cc(NC(=N)N)ccc1C(=O)Oc1ccc(CC(=O)O)n2ncnc12 | 10.3% | 59.9% | 101% | 9.45% | 49% | 99.7% |  |  | 
14 | N=C(N)Nc1cccc(C(=O)Oc2ccc(CC(=O)O)n3ncnc23)c1 | -11.2% | -6.7% | 6.8% | -0.24% | 1.21% | 18.6% |  |  | 
15 | N=C(N)Nc1ccc(C(=O)Oc2ccc(CCC(=O)O)n3ccnc23)cc1 | 27.6% | 95.1% | 100% | 61% | 100% | 100% |  | 24400 M⁻¹ s⁻¹ | 
16 | Cc1cc(C(=O)Oc2ccc(CC(=O)O)n3ncnc23)ccc1NC(=N)N | 1.3% | 6.3% | 36.7% | 0% | 8.4% | 35.5% |  |  | 
17 | N=C(N)Nc1ccc(C(=O)Oc2ccc(CC(=O)O)n3ncnc23)c(Cl)c1 | 81.2% | 100% | 100% | 43.5% | 97.6% | 99.9% |  |  | 
18 | N=C(N)Nc1ccc(C(=O)Oc2ccc(Cc3nn[nH]n3)n3ncnc23)cc1 | 89.7% | 101% | 100% | 89.3% | 100% | 100% | 1.45 ×10⁻⁶ cm/s |  | 
19 | CNC(=N)c1ccc(C(=O)Oc2ccc(CC(=O)O)n3ncnc23)cc1 | -0.79% | 11.3% | 52.3% | 5.66% | 8.66% | 66.5% |  |  | 
